Patent US20230167467A1, “METHODS AND COMPOSITIONS FOR THE PRODUCTION OF ISOBUTENE” (University of Alaska Anchorage, priority 2020, published 2023)

System: Engineered strains of E. coli
Assay type: cell-based
[1] = after solvent exposure, vs positive control

CCC(C)CC [3-methylpentane]
expression of acid resistance genes (gad, adi families): downregulated
expression of chaperone proteins groLS, spy, and dnaJK: highly upregulated
expression of dihydroxyacetone kinase genes dhaKLM: upregulated
expression of flagellar protein synthesis and assembly genes: downregulated
expression of gadE and adiY: significantly downregulated
expression of galactitol metabolism genes gatABD: upregulated
expression of glpABC (glycerol to glycerone phosphate): upregulated
expression of heat shock proteins and chaperones hslJORUV: strongest increases
expression of ibpAB and clpAB (protein protection and repair): strongest increases
expression of marABC (multiple antibiotic resistance): upregulated
expression of nitrate reductase genes narGHJKP: upregulated
expression of phage shock genes pspABCDE: highly upregulated
change in expression of gene adiA [1]: −2.19 ± 0.86
change in expression of gene adiC [1]: −1.60 ± 1.02
change in expression of gene adiY [1]: −2.88 ± 0.66
change in expression of gene bhsA [1]: 2.98 ± 0.60
change in expression of gene bssR [1]: 1.81 ± 0.44
change in expression of gene bssS [1]: 5.42 ± 0.84
change in expression of gene clpA [1]: 2.69 ± 0.63
change in expression of gene clpB [1]: 5.30 ± 0.69
change in expression of gene clpP [1]: 1.74 ± 0.59
change in expression of gene coaA [1]: −1.35 ± 0.88
change in expression of gene coaD [1]: 1.13 ± 0.90
change in expression of gene cspA [1]: −4.58 ± 0.58
change in expression of gene cspB [1]: −4.38 ± 1.31
change in expression of gene cspC [1]: −2.37 ± 0.90
change in expression of gene cspD [1]: 2.53 ± 0.57
change in expression of gene cspE [1]: −0.36 ± 0.63
change in expression of gene cspF [1]: −3.22 ± 1.04
change in expression of gene dhaK [1]: 4.32 ± 0.58
change in expression of gene dhaL [1]: 3.43 ± 0.62
change in expression of gene dnaJ [1]: 5.07 ± 0.69
change in expression of gene dnaK [1]: 4.55 ± 0.66
change in expression of gene fabA [1]: −0.74 ± 0.75
change in expression of gene fabB [1]: 2.87 ± 0.66
change in expression of gene fabD [1]: −0.97 ± 0.52
change in expression of gene flgA [1]: −1.37 ± 1.53
change in expression of gene flgB [1]: −3.25 ± 1.50
change in expression of gene flgC [1]: −4.33 ± 1.93
change in expression of gene flgD [1]: −3.56 ± 1.87
change in expression of gene flgE [1]: −2.72 ± 1.17
change in expression of gene flgF [1]: −2.66 ± 1.57
change in expression of gene flgG [1]: −3.06 ± 1.48
change in expression of gene flgH [1]: −2.28 ± 1.70
change in expression of gene gabD [1]: 0.24 ± 1.31
change in expression of gene gabP [1]: 1.14 ± 1.28
change in expression of gene gabT [1]: 0.62 ± 1.27
change in expression of gene gadA [1]: −1.66 ± 0.69
change in expression of gene gadB [1]: −1.26 ± 0.80
change in expression of gene gadC [1]: −0.31 ± 0.80
change in expression of gene gadE [1]: −2.58 ± 0.60
change in expression of gene gadW [1]: −2.78 ± 0.95
change in expression of gene gadX [1]: −2.92 ± 0.57
change in expression of gene gadY [1]: −4.93 ± 0.81
change in expression of gene glpA [1]: 8.12 ± 0.87
change in expression of gene glpB [1]: 5.89 ± 0.63
change in expression of gene glpC [1]: 6.69 ± 0.79
change in expression of gene groL [1]: 4.27 ± 0.57
change in expression of gene groS [1]: 4.18 ± 0.50
change in expression of gene hchA [1]: 1.65 ± 0.60
change in expression of gene hslJ [1]: 2.40 ± 0.65
change in expression of gene hslO [1]: 3.37 ± 0.64
change in expression of gene hslR [1]: 3.53 ± 0.65
change in expression of gene hslU [1]: 3.65 ± 0.55
change in expression of gene hslV [1]: 3.32 ± 0.61
change in expression of gene ibpA [1]: 8.01 ± 1.21
change in expression of gene ibpB [1]: 9.01 ± 1.50
change in expression of gene lhgO [1]: 1.21 ± 1.64
change in expression of gene lipA [1]: 0.26 ± 0.60
change in expression of gene lipB [1]: 0.71 ± 0.63
change in expression of gene narG [1]: 4.24 ± 0.65
change in expression of gene narH [1]: 3.41 ± 0.61
change in expression of gene narI [1]: 2.28 ± 0.92
change in expression of gene narJ [1]: 2.34 ± 0.68
change in expression of gene narK [1]: 2.75 ± 0.84
change in expression of gene potA [1]: −2.43 ± 0.80
change in expression of gene potB [1]: −0.51 ± 1.28
change in expression of gene potC [1]: −0.27 ± 1.18
change in expression of gene pspA [1]: 9.23 ± 0.55
change in expression of gene pspB [1]: 7.09 ± 0.68
change in expression of gene rpoA [1]: 0.54 ± 0.44
change in expression of gene rpoB [1]: 0.33 ± 0.40
change in expression of gene rpoC [1]: 0.70 ± 0.39
change in expression of gene rpoD [1]: 3.38 ± 0.70
change in expression of gene rpoE [1]: −2.07 ± 0.62
change in expression of gene rpoH [1]: 0.71 ± 0.52
change in expression of gene rpoN [1]: −1.28 ± 0.49
change in expression of gene rpoS [1]: 0.53 ± 0.47
change in expression of gene rpoZ [1]: −1.07 ± 0.53
change in expression of gene spy [1]: 4.73 ± 0.87
change in expression of gene tatA [1]: −1.05 ± 0.51
change in expression of gene tatB [1]: −0.93 ± 0.58
change in expression of gene tatC [1]: −0.35 ± 1.08
change in expression of gene tatD [1]: −1.73 ± 1.12
change in expression of gene tatE [1]: 0.79 ± 0.63
number of genes with significant changes in expression (vs control, Bon Ferroni corrected p-value<0.05): 414 genes
